Experimental data taken from patent US20130143913A1, “PROPHYLACTIC OR THERAPEUTIC AGENT FOR NON-ALCOHOLIC STEATOHEPATITIS” (KYORIN PHARMACEUTICAL CO., LTD., priority 2010, published 2013).

Legend:
IL-1β mRNA = IL-1β mRNA expression in liver of MCD diet-fed mice (quantitative real-time PCR); type: in vivo, mice (male C57BI/6J); details: ibudilast 10, 30 or 100 mg/kg orally twice a day for 14 days (FIG. 6), relative to 18S rRNA
Description: (§1) Effects of ibudilast on the hepatic inflammation and hepatic fibrosis were examined using methionine- and choline-deficient (MCD) diet-fed mice which induced hepatic inflammation and hepatic fibrosis involved in human pathological conditions like NASH. The MCD diet (Oriental Yeast Co., Ltd.) produced in accordance with the previous report by Okumura et al. (Okumura, K., et al. 2006, Hepatol. Res., 36: 217-228) was administered to male C57BI/6J mice (CLEA Japan, Inc.) at ten weeks of age for six weeks. […] Thereafter, TNFα, MCP-1, IL-1β, TGFβ, and col1a1 mRNA expressions in isolated liver were measured using the quantitative real-time PCR method. The 18S rRNA mRNA expression was used as an internal standard of the quantitative real-time PCR method and similarly measured. […] The quantitative real-time PCR was performed using TaqMan Fast Universal PCR Master Mix (Applied Biosystems) and Applied Biosystems 7500 Fast Real-Time PCR System (Applied Biosystems). […] Moreover, each operation relating to the quantitative real-time PCR was carried out in accordance with the manual attached to each reagent, kits and device. […]

[1] = test system: fatty acid synthesis in the liver; assay: Hepatic fatty acid synthesis from [1-14C]acetic acid in fasted/re-fed mice (fatty liver model); type: in vivo, mice (male C57BI/6J); details: re-fed mice after 48 h fasting; ibudilast 10 and 100 mg/kg orally twice a day (FIG. 1); vs. vehicle
From the text: In NAFLD, it is regarded that the increase of the fatty acid synthesis in the liver is an important factor involved in the fatty liver formation (Shinji, T., et al. 2005. J. Clin. Invest. 115: 1139-1142). Therefore, with reference to methods described in Delzenne et al. (Delzenne, N. M., et al., 1997, J. HepatoL, 26: 880-885) and Tsuchida et al. (Tsuchida. A., et al., 2004, J. Bio. Chem., 279: 30817-30822), effects of ibudilast on the fatty liver were examined by using re-fed mice in which the fatty acid synthesis in the liver is enhanced.
After 48 hours of fasting, male C57BI/6J mice at 8 weeks of age (CLEA Japan, Inc.) were refed for four hours. […]
The mice were refed with standard diet (CE-2, CLEA Japan, Inc.) after 30 minutes of the oral administration after fasting periods of 48 hours, and the mice were anatomized after refeeding periods of four hours. The content of triglyceride and biosynthesis of fatty acid in isolated liver were measured.
The fatty acid synthesis in the liver was measured using the fatty acid synthesis from the acetic acid. […]
After centrifugation, the chloroform layer was obtained as the lower layer. After the dried residue was dissolved to methanol, the scintillation cocktail was mixed with the obtained solution to measure radioactivity using liquid scintillation counter (Tri-Crab 1900CA, PerkinElmer). […]

[2] = test system: triglyceride content in liver; assay: Hepatic triglyceride content in ob/ob mice (obesity-related fatty liver model); type: in vivo, mice (male ob/ob, B6.V-Lep^ob/J); details: ibudilast 10, 30 or 100 mg/kg orally twice a day for two weeks (FIG. 3), vs. vehicle
Description: Obesity and insulin resistance are regarded as a major pathologic basis in NAFLD (Kristina, M., et al. 2006, J. Clin Endocrinol Metab., 91: 4753-4761). Therefore, effect of ibudilast on fatty liver was evaluated using B6.V-Lep^ob/J mice (ob/ob; Charles River Laboratories Japan, Inc.), a model of obesity-related insulin resistance and fatty liver. Male ob/ob mice (Charles River Laboratories Japan, Inc.) at seven weeks of age were used. To the vehicle group as a control, 2% (v/v) of PEG-60 hydrogenated castor oil (NIKKOL HCO-60, Nikko Chemicals Co., Ltd.) was orally administrated twice a day. To ibudilast groups, 10, 30 or 100 mg/kg of ibudilast which was dissolved to 2% (v/v). of PEG-60 hydrogenated castor oil was orally administered twice a day. At 15 to 21 hours after the end of two weeks administration period, the mice were dissected in the fed state. The content of triglyceride in isolated liver was measured. Triglyceride was extracted from the liver by using improved method of Folch et al. (Folch, J., et al. 1957. J. Biol. Chem., 226: 497-509). Tissues were homogenized by using chloroform methanol mixture 2:1 (v/v). […] The dried extract was dissolved to 4% (v/v) of Triton X-100 and the triglyceride concentration was measured using Liquitech TG-II reagent (Roche Diagnostics K. K.). […]

TGFβ mRNA = TGFβ mRNA expression in liver of MCD diet-fed mice (quantitative real-time PCR); type: in vivo, mice (male C57BI/6J); details: ibudilast 10, 30 or 100 mg/kg orally twice a day for 14 days (FIG. 7), relative to 18S rRNA
Description: as §1

MCP-1 mRNA = MCP-1 mRNA expression in liver of MCD diet-fed mice (quantitative real-time PCR); type: in vivo, mice (male C57BI/6J); details: ibudilast 10, 30 or 100 mg/kg orally twice a day for 14 days (FIG. 5), relative to 18S rRNA
Description: as §1

[3] = test system: content of triglyceride in the liver; assay: Hepatic triglyceride content in fasted/re-fed mice (fatty liver model); type: in vivo, mice (male C57BI/6J); details: re-fed mice after 48 h fasting; ibudilast 10 and 100 mg/kg orally twice a day (FIG. 2); vs. vehicle
From the text: In NAFLD, it is regarded that the increase of the fatty acid synthesis in the liver is an important factor involved in the fatty liver formation (Shinji, T., et al. 2005. J. Clin. Invest. 115: 1139-1142). Therefore, with reference to methods described in Delzenne et al. (Delzenne, N. M., et al., 1997, J. HepatoL, 26: 880-885) and Tsuchida et al. (Tsuchida. A., et al., 2004, J. Bio. Chem., 279: 30817-30822), effects of ibudilast on the fatty liver were examined by using re-fed mice in which the fatty acid synthesis in the liver is enhanced. After 48 hours of fasting, male C57BI/6J mice at 8 weeks of age (CLEA Japan, Inc.) were refed for four hours. To the vehicle group as a control, 2% (v/v) of PEG-60 hydrogenated castor oil (NIKKOL HCO-60, Nikko Chemicals Co., Ltd.) was orally administrated before fasting and after fasting periods of 12, 24, 36, and 48 hours. To ibudilast groups, […] or 100 mg/kg of ibudilast which was dissolved to 2% (v/v) of PEG-60 hydrogenated castor oil was orally administered before fasting and after fasting periods of 12, 24, 36, and 48 hours. […] The content of triglyceride and biosynthesis of fatty acid in isolated liver were measured. […] The dried extract was dissolved to 4% (v/v) of Triton X-100 and the triglyceride concentration was measured using Liquitech TG-II reagent (Roche Diagnostics K. K.). […]

TNFα mRNA = TNFα mRNA expression in liver of MCD diet-fed mice (quantitative real-time PCR); type: in vivo, mice (male C57BI/6J); details: ibudilast 10, 30 or 100 mg/kg orally twice a day for 14 days (FIG. 4), relative to 18S rRNA
Description: as §1

col1a1 mRNA = col1a1 mRNA expression in liver of MCD diet-fed mice (quantitative real-time PCR); type: in vivo, mice (male C57BI/6J); details: ibudilast 10, 30 or 100 mg/kg orally twice a day for 14 days (FIG. 8), relative to 18S rRNA
Description: as §1

Question: `CC(C)C(=O)c1c(C(C)C)nn2ccccc12` [Ibudilast, ibudilast] was tested. Which “mRNA expression of IL-1β in liver (index of hepatic inflammation)” value (IL-1β mRNA) did it give?
Answer: decrease

Question: What about the “fatty acid synthesis in the liver” value [1] of the same compound?
Answer: decreased

Question: What about the “triglyceride content in liver” value [2] of the same compound?
Answer: significantly decreased

Question: What about the “mRNA expression of TGFβ in liver (index of hepatic fibrosis)” value (TGFβ mRNA) of the same compound?
Answer: decrease

Question: What about the “mRNA expression of MCP-1 in liver (index of hepatic inflammation)” value (MCP-1 mRNA) of the same compound?
Answer: decrease

Question: And the “content of triglyceride in the liver” value [3]?
Answer: significantly decreased

Question: And the “mRNA expression of TNFα in liver (index of hepatic inflammation)” value (TNFα mRNA)?
Answer: decrease

Question: What about the “mRNA expression of collal in liver (index of hepatic fibrosis)” value (col1a1 mRNA) of the same compound?
Answer: decrease
